Assay results as given in patent US20250325565A1, “ERAVACYCLINE FOR TREATING CANCER” (B. G. NEGEV TECHNOLOGIES AND APPLICATIONS LTD., priority 2022, published 2025).

Tests used:
Assay type in all cases: cell-based, human
BxPC-3 cells [1] = test: XTT cell proliferation assay, BxPC-3
Procedure: (§1) Human PDAC (AsPC-1, BxPC-3, Panc-1 scr, Panc-1 p53-R273H knock-out (KO) hTERT-HPNE), breast (MCF-7), lung (A549), and colon (HT-29) cancer cell lines were purchased from the American Type Culture Collection (ATCC). The MCF-7, A549, Panc-1 scr, Panc-1 p53 KO and HT-29 cell lines were grown in Dulbecco's Modified Eagle Medium (DMEM; Biological Industries, Beit HaEmek (BI), Israel), and the BxPC-3 and AsPC-1 cell lines were cultured in Roswell Park Memorial Institute-1640 (RPMI-1640; BI, Israel) medium. All media was supplemented with 10% fetal bovine serum (FBS), 200 μM L-glutamine (BI), and 1% penicillin-streptomycin (BI). Cells were cultured at 37° C. in a 5% CO2 humidified incubator.
(§2) Eravacycline dihydrochloride (MedChem Express (MCE)) was dissolved in […] (DDW). Tigecycline (MCE) and omadacycline (MCE) were dissolved in dimethyl sulphoxide (DMSO). All drugs were prepared as 100 mM stock solutions. All cell lines were treated with DMSO as a control (less than 0.1%) or tigecycline, omadacycline, or eravacycline (at the indicated concentrations) for 72 hours. Cell viability and proliferation were determined using the XTT Cell Proliferation Assay Kit (Promega).
(§3) The XTT Cell Proliferation Assay Kit was used to determine cell viability and proliferation. Cells were seeded in 96-well plates at a density of 4,000 cells per well and allowed to attach overnight in a 5% CO2 incubator at 37° C. After overnight incubation, cells were treated with culture medium or in a medium containing tigecycline, omadacycline, or eravacycline at different concentrations (1, 2, 5, 10, 25, and 50 μM) for the indicated time period. Then, 50 μl XTT reaction solution (0.1 ml activation solution+5 ml XTT reagent solution) was added to each well, and the plate was incubated at 37° C. for two hours. After shaking the plate gently to distribute the dye in the wells, the absorbance was measured with a spectrophotometer (Bio-RadiMark Microplate Absorbance reader) at a wavelength of 450 nm and a reference wavelength of 655 nm.
(§4) To evaluate the half maximal inhibitory concentration (IC50) of tetracycline derivatives on five different cell lines (MCF-7, A549, HT-29, BxPC-3, and AsPC-1), the cells were seeded and allowed to attach overnight. All cells were washed with phosphate buffered saline (PBS) and then cultured in fresh media containing the drugs tigecycline, omadacycline, or eravacycline at an increasing concentration (0-50 μM) for 72 h. Inhibition of cell proliferation was determined using the XTT Cell Proliferation Assay Kit.
(§5) To investigate the effect of tetracycline derivatives on cell proliferation in human breast, lung, colon, and PDAC cells, the inventors treated all cell lines (MCF-7, A549, HT-29, BxPC-3, and AsPC-1) with different concentrations of tigecycline, omadacycline, and eravacycline (1, 2, 5, 10, 25, and 50 μM), with medium used as a control, for 72 h. Then, an XTT assay was performed to determine the growth inhibition rate.

p53 (mutated in BxPC-3) = test: Western blot of p53 protein expression in BxPC-3 cells; settings: BxPC-3, 72 h, increasing concentrations
POLK = test: Western blot of POLK protein expression in BxPC-3 cells; settings: BxPC-3, 72 h, increasing concentrations
MCF-7 cells = test: XTT cell proliferation assay, MCF-7; settings: MCF-7, 72 h, 1-50 μM
Procedure: as §1, §2
(§6) The XTT Cell Proliferation Assay Kit was used to determine cell viability and proliferation. Cells were seeded in 96-well plates at a density of 4,000 cells per well and allowed to attach overnight in a 5% CO2 incubator at 37° C. […] After shaking the plate gently to distribute the dye in the wells, the absorbance was measured with a spectrophotometer (Bio-RadiMark Microplate Absorbance reader) at a wavelength of 450 nm and a reference wavelength of 655 nm.
(§7) To evaluate the half maximal inhibitory concentration (IC50) of tetracycline derivatives on five different cell lines (MCF-7, A549, HT-29, BxPC-3, and AsPC-1), the cells were seeded and allowed to attach overnight. […] Inhibition of cell proliferation was determined using the XTT Cell Proliferation Assay Kit. […]

AsPC-1 cells = test: XTT cell proliferation assay, AsPC-1; settings: for decrease in cell growth: 72 h
Procedure: as §1, §2, §3, §4, §5

HT-29 cells = test: XTT cell proliferation assay, HT-29; settings: HT-29, 72 h, 1-50 μM
Procedure: as §1, §2, §6, §7

HPNE cell line = test: XTT cell proliferation assay, normal pancreatic HPNE cells; settings: 72 h
Procedure: as §1
as §3, with “Then, 50 μl XTT reaction solution (0.1 ml activation solution+5 ml XTT reagent solution) was added to each well, and the plate was incubated at 37° C. for two hours.” left out, “nm. […]” for “nm.”

A549 cells = test: XTT cell proliferation assay, A549; settings: A549, 72 h, 1-50 μM
Procedure: as §1, §2, §6, §7

BxPC-3 cells [2] = test: Annexin V-FITC/PI apoptosis assay by flow cytometry; settings: 72 h
Procedure: Cells were cultured in 6-well plates containing different concentrations of eravacycline, gemcitabine, or doxorubicin (medium alone was used as a control) for 72 h. Afterward, cells were collected by trypsinization for flow cytometry analysis. Cells were resuspended in 100 μl binding buffer, then stained with 5 μl propidium iodide (PI) and 5 μl Annexin V-FITC (Annexin V-FITC Apoptosis Detection Kit with PI-BioLegend) at room temperature for 20 min in the dark. Finally, the cells were collected and analyzed by FACS (Sony SP6800 Spectral cell analyzer), and the data was analyzed using SP6800 spectral analyzer software.
To examine eravacycline's effect on cell growth inhibition and the mechanism underlying this, the induction of apoptosis activated by eravacycline treatment in BxPC-3 cells was investigated by performing an Annexin V-FITC (V-fluorescein isothiocyanate) apoptosis assay. The effects of the treatment of BxPC-3 cells with increasing concentrations of eravacycline was evaluated after 72 h. A positive control of 1 μM of doxorubicin was evaluated at the same time point.

BxPC-3 cells [3] = test: Scratch wound healing (cell migration) assay; settings: BxPC-3, 10 μM, 0, 24, 48 and 72 hours
Procedure: BxPC-3 cells were cultured in six well plates to full confluence; then the monolayer of the cells was scratched using a 200 μl pipette tip. Subsequently, PBS was used to wash and remove floating and damaged cells, and medium alone or medium containing 10 μM eravacycline was added to the cells for further culture. Cell migration over the denuded area was observed and captured at the indicated times with a Nikon ECLIPSE Ts2 fluorescence microscope, equipped with DS-Fi3 camera. The wound closure rates were also measured at the indicated time points.
As one of the most malignant types of digestive tract cancer cells, PDAC cells have powerful migration and invasiveness capabilities. Therefore, the effect of eravacycline on cell migration abilities was investigated.

CN(C)[C@@H]1C(O)=C(C(N)=O)C(=O)[C@@]2(O)C(O)=C3C(=O)c4c(O)c(NC(=O)CN5CCCC5)cc(F)c4C[C@H]3C[C@@H]12 [eravacycline, (4S,4aS,5aR,12aS)-4-(Dimethylamino)-7-fluoro-3,10,12,12a-tetrahydroxy-1,11-dioxo-9-[2-(pyrrolidin-1-yl)acetamido]-1,4,4a,5,5a,6,11,12a-octahydrotetracene-2-carboxamide]
decrease in cell growth (BxPC-3 cells [1]; BxPC-3, 1 μM, 72 h): 27%
decrease in cell growth (BxPC-3 cells [1]; BxPC-3, 10 μM, 72 h): 63%
decrease in cell growth (BxPC-3 cells [1]; BxPC-3, 50 μM, 72 h): 93%
effect on cell survival / viability (in words) (BxPC-3 cells [1]; BxPC-3, 72 h, 1-50 μM): strong and selective viability reduction
suppression of proliferation, up to (BxPC-3 cells [1]; BxPC-3, 72 h, concentration-dependent, 1-50 μM): 90-93%
cytotoxicity at 25 µM (BxPC-3 cells [1]; Homo sapiens, BXPC-3, 72 h, read-out: decrease in cell growth / viability, BxPC-3, 25 μM, 72 h): 93%
IC50 (BxPC-3 cells [1]; Homo sapiens, BxPC-3, 72 h, XTT, read-out: IC50, inhibition of cell proliferation): 3.57 µM
decrease in cell growth / viability (BxPC-3 cells [1]; human, 72 h, 25 μM): 90%
p53 protein expression vs control (p53 (mutated in BxPC-3)): significantly reduced
POLK protein expression vs control (POLK): significantly reduced
effect on cell survival / proliferation (in words) (MCF-7 cells): No significant effect
decrease in cell growth (AsPC-1 cells; AsPC-1, 25 μM): 75%
decrease in cell growth (AsPC-1 cells; AsPC-1, 50 μM): 89%
suppression of proliferation, up to (AsPC-1 cells; AsPC-1, 72 h, concentration-dependent, 1-50 μM): 90-93%
IC50 (AsPC-1 cells; Homo sapiens, ASPC1, AsPC-1, 72 h, XTT, read-out: IC50, inhibition of cell proliferation): 7.07 µM
effect on cell survival / proliferation (in words) (HT-29 cells): No significant effect
effect on cell proliferation of normal pancreatic cells (in words) (HPNE cell line): significantly less inhibition than the other PDAC cell lines
effect on cell survival / proliferation (in words) (A549 cells): No significant effect
increase in the number of apoptotic cells (BxPC-3 cells [2]; BxPC-3, 10 μM): three-fold
apoptosis (BxPC-3 cells [2]; BxPC-3, 25 μM): ~70%
migration rate to wound vs control (BxPC-3 cells [3]): significantly lower migration rate
